These results are taken from patent publication US11071768B2, “Caspofungin compositions for inhalation” (TRILOGY THERAPEUTICS, INC., priority 2018, dated 2021).

Each structure is given as a SMILES string. Values after ≈ are worked out from the molar mass of the structure shown. Starred links: 1 amine or outer side, 2 acyl side, 3 side chain; linkers in the order of their positions; H or OH if unused. Positions of bridges follow the written chain, without caps; N, C: chain ends. Non-standard residues stand in square brackets, D forms with d. Residues, ends and D or L forms follow the SMILES beside them. *: point of attachment. hTyr(3S-OH,4S-OH,3'-OSO3H) = N[C@H](C(=O)O)[C@H](O)[C@@H](O)c1ccc(O)c(OS(=O)(=O)O)c1; pTerphenylCO(4''-OnC5H11) = CCCCCOc1ccc(-c2ccc(-c3ccc(C(=O)*)cc3)cc2)cc1; Orn(4R-OH,5R-OH) = O=C([C@H](C[C@@H](O)[C@@H](O)N[*:3])N[*:1])[*:2]; hTyr(3S-OH,4S-OH) = N[C@H](C(=O)O)[C@H](O)[C@@H](O)c1ccc(O)cc1; Pro(3S-OH,4S-Me) = C[C@H]1CN[C@H](C(=O)O)[C@H]1O; X1 = CCCCCOc1ccc(-c2cc(-c3ccc(C(=O)*)cc3)no2)cc1; Gln(3R-OH) = NC(=O)C[C@@H](O)[C@H](N)C(=O)O; Hyp = O=C(O)[C@@H]1C[C@@H](O)CN1 A value given as a limit tells only on which side of the number the result lay.

For series [1] the following is noted: rat; cited from earlier work.
Series [2] deals with Candida tropicalis ATCC 200956. In words: In vitro broth microdilution assay (CLSI). In kind it is cell-based. As for the experimental part: (§1) The antifungal potency of the test article(s) was measured using the in vitro broth microdilution assay under assay conditions described by the Clinical and Laboratory Standards Institute. In this assay, the Minimum Inhibitory Concentration (MIC) is defined as the lowest concentration of an agent that causes a specified reduction in visible growth of the microorganism. The Minimal Effective Concentration (MEC) is defined as the lowest concentration of an agent that leads to the growth of small, rounded, compact hyphal forms as compared to the hyphal growth seen in the growth control well. In this study, MIC values are determined for the 9 Candida species and Cryptococcus neoformans. MEC values are determined for 3 filamentous fungi (2 Aspergillus fumigatus and Trichophyton rubrum). Test articles were prepared as the following:
(§2) The 3.2 mg/mL working stock solution was 2-fold diluted serially in 0.9% NaCl to prepare a total of eleven 50-fold stock solutions, concentrations ranging from 3.2 to 0.003 mg/mL. A 4 μL aliquot of each dilution was added to 196 μL of broth medium seeded with the organism suspension in wells of a 96 well plate (fungal cell count: 1×10^3 to 1×10^4 colony forming units per mL). The final volume was 200 μL in each well. Following incubation, the test plates were visually examined and wells were scored for growth or complete growth inhibition to define the MIC values. Microscopy examination was used to determine the MEC values. Each test substance was evaluated in duplicate and the results below are the duplicate test values. Vehicle-control and an active reference agent were used as blank and positive controls, respectively.
Background: Broth dilution looks for growth in wells or tubes with falling amounts of substance.

For series [3], the system named is Candida albicans Azole-R (20186.025). In words: In vitro broth microdilution assay (CLSI). In kind it is cell-based. The method, then:
as §1, §2

Series [4] has as its system Candida albicans ATCC44858. In words: In vitro broth microdilution assay (CLSI). The series is classed as cell-based. The method, then:
as §1, §2

The subject of series [5] is Candida glabrata ATCC 36583. In words: In vitro broth microdilution assay (CLSI). The series is classed as cell-based. The method, then:
as §1, §2

Series [6] deals with Candida albicans Azole-R (20183.073). In words: In vitro broth microdilution assay (CLSI). In kind it is cell-based. The method, then:
as §1, §2

Series [7] has as its system Candida krusei ATCC 6258. In words: In vitro broth microdilution assay (CLSI). The series is classed as cell-based. The method, then: as §1, §2
Series [8] deals with Candida parapsilosis ATCC 22019. In words: In vitro broth microdilution assay (CLSI). In kind it is cell-based. As for the experimental part:
as §1, §2

Series [9] has as its system Candida albicans ATCC90028. In words: In vitro broth microdilution assay (CLSI). In kind it is cell-based. The method, then:
as §1, §2

Series [10] relates to Trichophyton rubrum ATCC 10218. In words: In vitro broth microdilution assay (CLSI). In kind it is cell-based. The method, then: as §1, §2
For series [11] the following is noted: cited from earlier work.

With `CCCCCOc1ccc(-c2cc(-c3ccc(C(=O)N[C@H]4C[C@@H](O)[C@@H](O)NC(=O)[C@@H]5[C@@H](O)[C@@H](C)CN5C(=O)[C@H]([C@H](O)CC(N)=O)NC(=O)[C@H]([C@H](O)[C@@H](O)c5ccc(O)c(OS(=O)(=O)O)c5)NC(=O)[C@@H]5C[C@@H](O)CN5C(=O)[C@H]([C@@H](C)O)NC4=O)cc3)no2)cc1` [Micafungin, micafungin] (X1-[Orn(4R-OH,5R-OH)]T[Hyp][hTyr(3S-OH,4S-OH,3'-OSO3H)][Gln(3R-OH)][Pro(3S-OH,4S-Me)]; lactam 1-C), in series [1], the “Exposure in the kidney relative to plasma” value is 3.4 fold, the “Exposure in the liver relative to plasma” value is given as 1.6 fold and the “Exposure in the lung relative to plasma” value is given as 2.9 fold.

Regarding `C[C@@H]1[C@H](O)[C@@H](C)/C=C/C=C/C=C/C=C/C=C/C=C/C=C/[C@H](O[C@@H]2O[C@H](C)[C@@H](O)[C@H](N)[C@@H]2O)C[C@@H]2O[C@](O)(C[C@@H](O)C[C@@H](O)[C@H](O)CC[C@@H](O)C[C@@H](O)CC(=O)O[C@H]1C)C[C@H](O)[C@H]2C(=O)O` [amphotericin B], the MIC in series [2] was determined as 1 µg/mL (≈ 1.08 µM); in [3] it was 0.25 µg/mL (≈ 0.271 µM); in series [4] it was 0.125 µg/mL (≈ 0.135 µM); in series [5], 0.125 µg/mL (≈ 0.135 µM); in series [6] it was 0.125 µg/mL (≈ 0.135 µM); in series [7] it was 0.25 µg/mL (≈ 0.271 µM). The MIC in series [8] turned out to be 0.25 µg/mL (≈ 0.271 µM); in [9] (Candida albicans ATCC90028), 0.125 µg/mL (≈ 0.135 µM); in [9] (Candida albicans ATCC90028 + 50% human serum), 0.25 µg/mL; in [10] it was 0.125 µg/mL (≈ 0.135 µM).

For `CCCCCOc1ccc(-c2ccc(-c3ccc(C(=O)N[C@H]4C[C@@H](O)[C@@H](O)NC(=O)[C@@H]5[C@@H](O)[C@@H](C)CN5C(=O)[C@H]([C@@H](C)O)NC(=O)[C@H]([C@H](O)[C@@H](O)c5ccc(O)cc5)NC(=O)[C@@H]5C[C@@H](O)CN5C(=O)[C@H]([C@@H](C)O)NC4=O)cc3)cc2)cc1` [anidulafungin] ({pTerphenylCO(4''-OnC5H11)}-[Orn(4R-OH,5R-OH)]T[Hyp][hTyr(3S-OH,4S-OH)]T[Pro(3S-OH,4S-Me)]; lactam 1-C), the “Time that levels stay above MICs for common pathogens” value in [11] (rat tissues) is 72 h. In [11] (rat), the “Exposure in tissues (liver, lung, spleen, kidney) relative to plasma” value is 9-12 fold and the “Time to peak concentrations in tissues” value is recorded as at most 30 min.

What is called MIC is the lowest concentration that inhibits growth of the organism.
